Experimental data from patent US10413583B2, “Synthetic substrates for enzymes that catalyze reactions of modified cysteines and related methods” (The University of Chicago, priority 2016, dated 2019).

How the values were obtained:
APT1 = target: T1, APT1 (Homo sapiens, UniProt O75608); assay: In vitro kinetic assay and emission spectra of DPP-1, DPP-2, DPP-3 with purified APT1 (with detergent); format: biochemical
T1 construct: His-tag; made in house; host or cells: E. coli ROSETTA DE3
Procedure: 50 μL of 7.5 μM DPP1-3 in HEPES (20 mM, pH=7.4, 150 mM NaCl, 0.1% Triton X-100) were added to a 384-well black flat bottom plate (Corning Life Sciences, Corning, N.Y., United States of America) and placed in an Infinite M200 Pro (Tecan, Mannedorf, Switzerland) plate reader at 37° C. for 5 min to warm. 25 μL of either 4-(2-hydroxyethyl)-1-piperazineethanesulfonic acid (HEPES) buffer alone or HEPES buffer containing 150 nM APT1 or APT2, was added using a multi-channel pipette, resulting in a final concentration of 5 μM DPP1-3 and 50 nM APT1 or APT2. Fluorescence intensities (λex 490/9 nm, λem 545/20 nm, Gain 70, No. of flashes 25, Integration time 100 μs and Z-position 20000 μm) were measured at 30 second (s) time intervals for 20 min. At the end of 20 min kinetic run, emission spectra were obtained (λex 485 nm, Aem510-700 nm, Gain 100, No. of flashes 25, Integration time 100 μs and Z-position 20,000 μm).

[1] = Water solubility of probes (stated in words); format: physicochemical
HeLa cells = assay: Flow cytometry of DPP-3 in HeLa cells; format: cell-based, human; details: 5 μM DPP-3, 5 min, flow cytometry
Procedure: (§1) Cells were plated on a 10 cm dish with 10 mL of DMEM/High Glucose (10% FBS, 1% P/S, L-Glutamine, Sodium pyruvate) 36-48 hours prior to the day of experiment and maintained at 37° C., 5% CO2 so as to obtain 80-90% confluency. Cells were washed with DPBS and trypsinized with 1 mL 0.05% Trypsin. 5 mL of DMEM/High Glucose (10% FBS, L-Glutamine, Sodium pyruvate) was added and cells were spun down at 1200 rpm for 3 min. Media was discarded and cells were resuspended in 5 mL of Live Cell Imaging Solution and again spun down at 1200 rpm for 3 min. The cells pellets obtained were resuspended in 3-5 mL of Live Cell Imaging Solution and divided into 500 μL aliquots. The aliquots were treated with either 0.2% DMSO carrier or 1 μM of PalmB/ML348 or 1 μM/5 μM of ML349 inhibitor. After 30 min of incubation at room temperature, 1 μL of 2.5 mM DPP-3 in DMSO was added to each aliquot for a final concentration of 5 μM, and the solutions were mixed. After 5 min incubation at room temperature, fluorescence signal in FITC channel was measured for 10000 cells (5000 for HeLa experiments) on a LSR-Fortessa 4-15 HTS (BD digital instrument, 488 nm laser with 530/30 nm filter for FITC; BD, Franklin Lakes, N.J., United States of America). For analyzing DPP2 in HEK293T cells, the aliquots were treated with either 0.2% DMSO carrier or 2 μM of PalmB, 5 or 20 μM of ML348/ML349 and then analyzed by the protocol as mentioned above. Data was analyzed by FlowJo software version 10.0.8. For comparison of A431 starved versus non-starved, parallel 10 cm dishes of A431 cells were plated in 10 mL of DMEM (high glucose, 10% FBS, 1% P/S), and grown for 36 h. The growth media was removed, and replaced by 10 mL of either DMEM (High glucose) with 10% FBS to maintain “growth” conditions, or DMEM (High glucose) without FBS respectively for “starvation” conditions, and incubated for 14 h. After trypsinization, both plates were treated with 5 mL of DMEM (high glucose) for spinning the cells down, and further processing and analysis were performed as described above by flow cytometry.

HEK293T cells = assay: Live cell fluorescence imaging and flow cytometry of DPP-2 and DPP-3 in HEK293T cells; format: cell-based, human; details: 1 μM DPP-2 for 15 min, microscopy or flow cytometry
Procedure: HEK293T (650,000 cells per dish) cells were plated with 1.5 mL of Dulbecco's Modified Eagle Medium (DMEM) (High Glucose, 10% fetal bovine serum (FBS)) in a 35 mm glass bottom dish (D35-10-1.5-N; Cellvis, Mountain View, Calif., United States of America) 24 hrs prior to imaging. 30 min before the addition of the DPP probe, the cell culture media was removed and cells were washed with 1 mL of Delbecco's phosphate-buffered saline (DPBS). The media was then replaced with 1 mL of DMEM containing 1 μM Hoechst 33342 and either 0.1% DMSO carrier as a control, 1 or 2 μM Palm B, 0.1, 1.0, or 5 μM ML348, and incubated for 30 min at 37° C. and 5% CO2. The media was removed, the cells were washed with 1 mL of Live Cell Imaging Solution (Thermo Fisher Scientific, Waltham, Mass., United States of America), and 1 mL of 1 μM DPP-2 or DPP-3 in Live Cell Imaging Solution was added to each plate. For ML348 0.1, 1.0, or 5 μM was added along with DPP-2 or DPP-3. After incubation for 15 min at 37° C. and 5% CO2, images were obtained on an inverted epi-fluorescence microscope (Olympus IX83; Olympus Corporation, Tokyo, Japan) attached with EMCCD camera (Photometrics EVOLVE™ Delta; Photometrics, Tucson, Ariz., United States of America) with 40× oil objective (N/A 1.3) for DPP-2 (excitation filter 500/20, dichroic chroma 89007, emission filter 535/30, exposure time 200 ms, EM gain 25), Hoechst 33342: (excitation filter 402/15, emission filter 455/50, dichroic chroma 89013, exposure time 30 ms, EM gain 25), and brightfield (exposure time 5 ms, EM gain 5), and for DPP-3 (exposure time 500 ms, EM gain 150), Hoechst 33342: (exposure time 30 ms, EM gain 25), and brightfield (exposure time 20 ms, EM gain 5). Analyses were performed in ImageJ. For data analysis, the average fluorescence intensity per image in each experimental condition was obtained by selecting regions of interest (ROIs) in the brightfield image. For display, the data were normalized to the average fluorescence intensity of the control conditions. Each experiment was repeated at least three separate times with identical results.
Cells were plated on a 10 cm dish with 10 mL of DMEM/High Glucose (10% FBS, 1% P/S, L-Glutamine, Sodium pyruvate) 36-48 hours prior to the day of experiment and maintained at 37° C., 5% CO2 so as to obtain 80-90% confluency. Cells were washed with DPBS and trypsinized with 1 mL 0.05% Trypsin. 5 mL of DMEM/High Glucose (10% FBS, L-Glutamine, Sodium pyruvate) was added and cells were spun down at 1200 rpm for 3 min. Media was discarded and cells were resuspended in 5 mL of Live Cell Imaging Solution and again spun down at 1200 rpm for 3 min. The cells pellets obtained were resuspended in 3-5 mL of Live Cell Imaging Solution and divided into 500 μL aliquots. The aliquots were treated with either 0.2% DMSO carrier or 1 μM of PalmB/ML348 or 1 μM/5 μM of ML349 inhibitor. After 30 min of incubation at room temperature, 1 μL of 2.5 mM DPP-3 in DMSO was added to each aliquot for a final concentration of 5 μM, and the solutions were mixed. After 5 min incubation at room temperature, fluorescence signal in FITC channel was measured for 10000 cells (5000 for HeLa experiments) on a LSR-Fortessa 4-15 HTS (BD digital instrument, 488 nm laser with 530/30 nm filter for FITC; BD, Franklin Lakes, N.J., United States of America). For analyzing DPP2 in HEK293T cells, the aliquots were treated with either 0.2% DMSO carrier or 2 μM of PalmB, 5 or 20 μM of ML348/ML349 and then analyzed by the protocol as mentioned above. Data was analyzed by FlowJo software version 10.0.8. For comparison of A431 starved versus non-starved, parallel 10 cm dishes of A431 cells were plated in 10 mL of DMEM (high glucose, 10% FBS, 1% P/S), and grown for 36 h. The growth media was removed, and replaced by 10 mL of either DMEM (High glucose) with 10% FBS to maintain “growth” conditions, or DMEM (High glucose) without FBS respectively for “starvation” conditions, and incubated for 14 h. […]

MDA-MB-231 cells = assay: Flow cytometry of DPP-3 in MDA-MB-231 cells; format: cell-based, human; details: MDA-MB-231; 5 μM DPP-3, 5 min, flow cytometry
Procedure: as §1

MCF-7 cells = assay: Flow cytometry of DPP-3 in MCF-7 cells; format: cell-based, human; details: 5 μM DPP-3, 5 min, flow cytometry
Procedure: as §1

T1 sequence (O75608 whole entry): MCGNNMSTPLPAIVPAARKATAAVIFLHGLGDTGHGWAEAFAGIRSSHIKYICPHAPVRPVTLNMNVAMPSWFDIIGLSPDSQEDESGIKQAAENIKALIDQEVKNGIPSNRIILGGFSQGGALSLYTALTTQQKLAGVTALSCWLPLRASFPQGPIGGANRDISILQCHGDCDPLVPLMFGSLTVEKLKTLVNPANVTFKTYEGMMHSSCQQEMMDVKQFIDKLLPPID

CCCCCCCC(=O)SC[C@@H](C(=O)N[C@@H](CCCCN)C(=O)OC)N(C)C(=O)Oc1ccc2c(c1)Oc1cc(N(C)C)ccc1C21OC(=O)c2ccccc21 (some centres unmarked) [DPP-3]
enhancement in fluorescence signal (APT1; 5 μM probe, 50 nM APT1, 20 min): 400 fold
selectivity for APT1 over APT2 (APT1; in vitro, purified APT1 vs APT2): modest selectivity for APT1 over APT2
performance as substrate / reaction kinetics (APT1; purified APT1): striking reaction kinetics
water solubility [1]: water soluble
detection of endogenous depalmitoylase activities by probe (HeLa cells): can detect endogenous depalmitoylase activities
probe fluorescent signal in live cells (HEK293T cells): functions in live cells
detection of endogenous depalmitoylase activities by probe (MDA-MB-231 cells): can detect endogenous depalmitoylase activities
detection of endogenous depalmitoylase activities by probe (MCF-7 cells): can detect endogenous depalmitoylase activities
